Results from US4734418A, “Quinazoline compounds and antihypertensives” (priority 1984, dated 1988).
Read-outs that look alike come from different tables or passages of the source.

How the values were obtained:
[1] = test system: Spontaneously Hypertensive Rats; test: Test 1: antihypertensive effects (systolic tail artery blood pressure) and heart rate in spontaneously hypertensive rats, oral; assay type: in vivo, rat (male, SHR); settings: for change in vivo at 1 mg/kg / change in vivo at 10 mg/kg: Rattus norvegicus; for Change (%) in heart rate: maximum value
Description: The antihypertensive effects of the certain compounds of this invention were studied in the following manner.
Among male, spontaneously hypertensive rats (SHRs) of 20 weeks of age or older and 350-430 g heavy all of which had developed hypertension, those having systolic blood pressures of 180 mmHg or higher were used in groups, each of which was constituted of 3-4 of the rats. […] Besides, heart rates were also measured simultaneously. The compounds were each dissolved or suspended in a 0.5% methylcellulose solution and then administered orally.
*All administered orally at a dosage of 1 mg/Kg except for the compounds
**Each percent change in heart rate is indicated by the corresponding

Mouse = test: Test 2: acute toxicity, mouse, oral; assay type: in vivo, male ddy-mice; settings: fourteenth day
Description: The acute toxicity of certain compounds of this invention were studied in the following manner.
Namely, male ddy-mice of 5 weeks of age and male Wister rats of 8 weeks of age were fasted for 18 hours and used in groups each of which was constituted of 4-5 of mice or rats. The compounds were each dissolved or suspended in a 0.5% methylcellulose solution and administered orally (P.O.). On the fourteenth day after the administration, their toxicity were judged.
Each numeral set indicates the number of dead animals/the number of teste
animals. Hyphens (--) indicate that no tests were effected.

[2] = SHR, oral 1 mg/Kg, 1 hour, read-out: Antihypertensive effects, change (%) in blood pressure, 1 hour later
[3] = SHR, oral 1 mg/Kg, 3 hours, read-out: Antihypertensive effects, change (%) in blood pressure, 3 hours later
[4] = SHR, oral 1 mg/Kg, 6 hours, read-out: Antihypertensive effects, change (%) in blood pressure, 6 hours later
[5] = SHR, oral 1 mg/Kg, 24 hours, read-out: Antihypertensive effects, change (%) in blood pressure, 24 hours later
[6] = po, 1 h, read-out: Antihypertensive effects, change (%) in blood pressure, 1 hour later
[7] = po, 3 h, read-out: Antihypertensive effects, change (%) in blood pressure, 3 hours later
[8] = po, 6 h, read-out: Antihypertensive effects, change (%) in blood pressure, 6 hours later
[9] = po, 24 h, read-out: Antihypertensive effects, change (%) in blood pressure, 24 hours later

Structure (SMILES) | change in vivo at 1 mg/kg [1, 2] [%] | change in vivo at 1 mg/kg [1, 3] [%] | change in vivo at 1 mg/kg [1, 4] [%] | change in vivo at 1 mg/kg [1, 5] [%] | Change (%) in heart rate ([1]; SHR, oral 1 mg/Kg) | further results
CCOC(=O)c1cnc(N2CCN(c3nc(N)c4cc(OC)c(OC)cc4n3)CC2)nc1C [Example 39] | -4.4 | -12.7 | -7.3 | 1.5 | +2.2% | Acute Toxicity, number of dead animals/number of tested animals (Mouse; 1 g/Kg P.O.): 0/5
COc1cc2nc(N3CCN(C(=O)C4CCCO4)CC3)nc(N)c2cc1OC (stereo not shown) [Terazosin, terazosin, reference compound] |  |  |  |  | +7.2% | change in vivo at 1 mg/kg [1, 6]: -22.4%; change in vivo at 1 mg/kg [1, 7]: -25.9%; change in vivo at 1 mg/kg [1, 8]: -23.4%; change in vivo at 1 mg/kg [1, 9]: -5.4%; Acute Toxicity, number of dead animals/number of tested animals (Mouse; 1 g/Kg P.O.): 0/5; Acute Toxicity, number of dead animals/number of tested animals (Mouse; 3 g/Kg P.O.): 1/5
CCN1Cc2nc(N3CCN(c4nc(N)c5cc(OC)c(OC)cc5n4)CC3)ncc2C1=O [Example 23] | -11.7 | -21.9 | -27 | -2.6 | +23.1% | Acute Toxicity, number of dead animals/number of tested animals (Mouse; 1 g/Kg P.O.): 0/5; Acute Toxicity, number of dead animals/number of tested animals (Mouse; 3 g/Kg P.O.): 0/5
CCN1CCc2nc(N3CCN(c4nc(N)c5cc(OC)c(OC)cc5n4)CC3)ncc2C1=O [Example 17] | 0 | -20.2 | -27.9 | -12 | +10.8% | Acute Toxicity, number of dead animals/number of tested animals (Mouse; 1 g/Kg P.O.): 0/5
COc1cc2nc(N3CCN(c4ncc5ccccc5n4)CC3)nc(N)c2cc1OC [Example 70] | -7.8 | -17.5 | -23.3 | -4.4 | +13.7% | Acute Toxicity, number of dead animals/number of tested animals (Mouse; 1 g/Kg P.O.): 0/4
CCN1C(=O)CCCc2nc(N3CCN(c4nc(N)c5cc(OC)c(OC)cc5n4)CC3)ncc21 [Example 32] | -20.2 | -30.5 | -35.2 | -16.4 | +11.0% | Acute Toxicity, number of dead animals/number of tested animals (Mouse; 1 g/Kg P.O.): 0/5
COc1cc2nc(N3CCN(c4ncc5c(n4)CN(C(C)C)C5=O)CC3)nc(N)c2cc1OC [Example 25] | -4.3 | -23.9 | -35.4 | -6.7 | +12.9% | Acute Toxicity, number of dead animals/number of tested animals (Mouse; 1 g/Kg P.O.): 0/5
CCOC(=O)c1cnc(N2CCN(c3nc(N)c4cc(OC)c(OC)cc4n3)CC2)nc1O [Example 50] | -1.5 |  | -14.6 | -6.3 | +2.9% | 
CCN(CC)C(=O)c1cnc(N2CCN(c3nc(N)c4cc(OC)c(OC)cc4n3)CC2)nc1C [Example 42] | -16.5 | -19.5 | -24 | -7.5 | +5.2% | 
CCOC(=O)c1cc2nc(N3CCN(c4nc(N)c5cc(OC)c(OC)cc5n4)CC3)ncc2c(=O)n1CC [Example 18] | 0 | -3.9 | -9.8 | -3.9 | +11.1% | 
COc1cc2nc(N3CCN(c4ncc5c(n4)N(C)CCN(C)C5=O)CC3)nc(N)c2cc1OC [Example 76] | 0 | -3.8 | -7.2 | -9.6 | +2.9% | 
CCn1cc(C#N)c2nc(N3CCN(c4nc(N)c5cc(OC)c(OC)cc5n4)CC3)ncc2c1=O [Example 13] | -1 | -3.9 |  | -3.9 | +7.4% | 
COc1cc2nc(N3CCN(c4ccc5ccccc5n4)CC3)nc(N)c2cc1OC.Cl [Example 94, 4-Amino-6,7-dimethoxy-2-(4-(2-quinolyl)piperazino)quinazoline hydrochloride] | -0.5 | -12.7 | -22.1 | -5.4 | +5.4% | 
CCN(CC)C(=O)c1cnc(N2CCN(c3nc(N)c4cc(OC)c(OC)cc4n3)CC2)nc1SC [Example 53] | -27.9 | -31.3 | -36.1 | -12 | +25.7% | 
COc1cc2nc(N3CCN(c4ncc5c(n4)CC(c4ccccc4)NC5=O)CC3)nc(N)c2cc1OC (stereo not shown) [Example 19] | -2.4 | -10.1 | -11.1 | -2.9 | +2.9% | 
CCNC(=O)Cc1cnc(N2CCN(c3nc(N)c4cc(OC)c(OC)cc4n3)CC2)nc1NCC [Example 63] | 3.1 | -4.7 | -9 | -6.6 | +6.8% | 
COc1cc2nc(N3CCN(c4ncc5c(=O)n(C6CC6)ccc5n4)CC3)nc(N)c2cc1OC [Example 11] | -0.5 | -16.6 | -17.1 | -6.8 | +5.7% | 
CCN(CC)C(=O)c1cnc(N2CCN(c3nc(N)c4cc(OC)c(OC)cc4n3)CC2)nc1OC [Example 52] | -8 | -13 | -19.5 | -3 | +3.6% | 
COc1cc2nc(N3CCN(c4ncc([N+](=O)[O-])cc4[N+](=O)[O-])CC3)nc(N)c2cc1OC [Example 92] |  |  |  |  |  | change in vivo at 10 mg/kg [1, 6]: 1.4%; change in vivo at 10 mg/kg [1, 7]: -3.3%; change in vivo at 10 mg/kg [1, 8]: -9.4%; change in vivo at 10 mg/kg [1, 9]: -6.1%; Change (%) in heart rate ([1]; SHR, oral 10 mg/Kg): +8.5%
CCn1ccc2nc(N3CCN(c4ncc5ccccc5n4)CC3)ncc2c1=O [Example 96, 2-(4-(5,6-Dihydro-6-ethyl-5-oxopyrido[4,3-d]pyrimidine-2-yl)piperazino)quinazoline] | 3 | -2.5 | -8 | -6.5 | +2.9% | 
CCCn1ccc2nc(N3CCN(c4nc(N)c5cc(OC)c(OC)cc5n4)CC3)ncc2c1=O [Example 5] | 0 | -6.3 | -13.2 | -6.3 | +2.6% | 
CCOC(=O)c1cnc(N2CCN(c3nc(N)c4cc(OC)c(OC)cc4n3)CC2)nc1N [Example 54] | -4.3 | -11.4 | -16.7 | -4.8 | +5.2% | 
COc1cc2nc(N3CCN(c4ncc(C(=O)NN(C)C)c(C)n4)CC3)nc(N)c2cc1OC [Example 47] | -3.5 | -9 | -12.5 | -2.5 | +6.3% | 
CCNC(=O)c1cnc(N2CCN(c3nc(N)c4cc(OC)c(OC)cc4n3)CC2)nc1C(=O)NCC [Example 85] | -1.5 | -7.3 | -12.2 | -3.9 | +3.5% | 
CCOC(=O)c1cnc(N2CCN(c3nc(N)c4cc(OC)c(OC)cc4n3)CC2)nc1C(=O)OCC [Example 84] | 0.5 | 0 | -1.5 | -0.5 | +2.2% | 
CCNC(=O)c1cnc(N2CCN(c3nc(N)c4cc(OC)c(OC)cc4n3)CC2)nc1N [Example 64] | -1.4 | -9.6 | -13.9 | -1.9 | +9.9% | 
COc1cc2nc(N3CCN(c4ncc(C(=O)NCC(F)(F)F)c(C)n4)CC3)nc(N)c2cc1OC [Example 48] | -4.5 | -9 | -15 | -4 | +6.9% | 
COCCN1Cc2nc(N3CCN(c4nc(N)c5cc(OC)c(OC)cc5n4)CC3)ncc2C1=O [Example 87] |  | -15.2 | -21.6 | -2.5 | +17.7% | 
CCOC(=O)c1cnc(N2CCN(c3nc(N)c4cc(OC)c(OC)cc4n3)CC2)nc1NC(C)C [Example 59] | -10.1 | -23.9 | -30.6 | -12.4 | +5.7% | 
